Measured values from patent US20110233526A1, “PERYLENE DIIMIDE DERIVATIVE AND ORGANIC SEMICONDUCTOR ELEMENT USING THE SAME MATERIAL” (priority 2010, published 2011).

What was measured:
[1] = Electron mobility of TC-PDA-F in an OTFT versus time of exposure to air (air-stability, FIG. 3); type: physicochemical; conditions: OTFT thin film
Source text: Refer to FIG. 1 and FIG. 2 for diagrams respectively schematically showing a BG-TC (Bottom Gate-Top Contact) OTFT and a BG-BC (Bottom Gate-Bottom Contact) OTFT. The BG-TC OTFT 10 has a substrate 11, a gate 12 formed on the substrate 11, a dielectric layer 13 formed on the gate 12, a source 14 and a drain 15 formed over the dielectric layer 13, and an organic semiconductor layer 16 for conducting the source 14 and the drain 15. The BG-BC OTFT 20 has a substrate 21, a gate 22 formed on the substrate 21, a dielectric layer 23 formed on the gate 22, a source 24 and a drain 25 formed on the dielectric layer 23, and an organic semiconductor layer 26 for conducting the source 24 and the drain 25. In one embodiment, the organic semiconductor layers 16 and 26 are fabricated with a soluble process in the atmospheric environment. In one embodiment, the dielectric layers 13 and 23 respectively formed on the substrates 11 and 21 also are fabricated with a soluble process. For example, a liquid-phase deposited silicon dioxide (LPD-SiO2) is formed on a silicon substrate 11 or 21 to function as the dielectric layer 13 or 23, whereby the electron mobility thereof can reach 0.26 cm^2V^−1s^−1. Refer to FIG. 3 for a diagram showing the relationship of the electron mobility of TC-PDA-F and the time of exposure to air.

[2] = Solubility in organic solution; type: physicochemical; conditions: organic solution (such as toluene)

For `O=C1c2cc(Cl)c3c4c(Cl)cc5c6c(cc(Cl)c(c7c(Cl)cc(c2c37)C(=O)N1Cc1cc(F)cc(C(F)(F)F)c1)c64)C(=O)N(Cc1cc(F)cc(C(F)(F)F)c1)C5=O` [TC-PDA-F], the electron mobility ([1]; after exposure to air for two months (FIG. 3)) was 1.6×10^−5 cm^2V^−1s^−1, the electron mobility ([1]; before exposure to air (FIG. 3)) was 5.34×10^−5 cm^2V^−1s^−1 and the “solubility in organic solution” value [2] was “can be dissolved”.
